Reference: patent US20250171423A1, “PHARMACEUTICAL COMPOUNDS FOR THE TREATMENT OF COMPLEMENT MEDIATED DISORDERS” (Achillion Pharmaceuticals, Inc., priority 2020, published 2025)

target: T1, Human complement C1s enzyme (Homo sapiens, UniProt P09871); test: Human C1s Enzyme Assay; assay type: biochemical; details: human C1s 1.16 nM, 5 min preincubation, substrate Z-L-Lys-SBzl 100 μM, A405; read-out: C1s Protease Activity
T1 construct: purified from human serum, Complement Technology, Inc; purchased Complement Technology, Inc; host or cells: human serum
T1 sequence (P09871 438-688 limits assumed): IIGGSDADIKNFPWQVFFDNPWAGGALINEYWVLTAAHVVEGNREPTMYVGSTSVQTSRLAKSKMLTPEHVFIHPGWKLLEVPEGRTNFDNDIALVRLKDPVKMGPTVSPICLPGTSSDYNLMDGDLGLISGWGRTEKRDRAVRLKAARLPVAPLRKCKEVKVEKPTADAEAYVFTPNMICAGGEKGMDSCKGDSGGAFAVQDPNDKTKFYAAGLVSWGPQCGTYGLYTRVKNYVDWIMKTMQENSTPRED
T1 sequence (P09871 16-437 partner limits assumed): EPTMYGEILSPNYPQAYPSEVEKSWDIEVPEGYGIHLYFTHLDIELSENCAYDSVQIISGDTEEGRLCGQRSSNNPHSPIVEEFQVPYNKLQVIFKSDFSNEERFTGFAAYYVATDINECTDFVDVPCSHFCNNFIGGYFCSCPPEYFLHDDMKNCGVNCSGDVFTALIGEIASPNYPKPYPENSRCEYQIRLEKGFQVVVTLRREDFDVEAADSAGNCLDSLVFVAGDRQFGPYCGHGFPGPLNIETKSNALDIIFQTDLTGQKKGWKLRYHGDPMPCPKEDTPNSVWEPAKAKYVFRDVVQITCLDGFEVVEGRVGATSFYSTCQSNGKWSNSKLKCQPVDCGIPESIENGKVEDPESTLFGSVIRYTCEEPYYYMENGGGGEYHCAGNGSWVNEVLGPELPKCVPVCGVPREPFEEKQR
Outline: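 C1s purified from human serum (1.16 nM final) was preincubated with compound for 5 min at room temperature in 50 mM Tris, 1 M NaCl, pH 7.5. Z-L-Lys-SBzl and DTNB were then added at 100 μM each, and A405 was followed for 30 min. IC50 came from nonlinear regression of reaction rates.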

Row | SMILES | IC50
1 | N=C(N)c1csc(CNC(=O)[C@@H]2C[C@](F)(CN)CN2C(=O)CNC(=O)CCCOc2ccccc2)c1 [Compound 109, (2S,4S)-4-(aminomethyl)-N-((4-carbamimidoylthiophen-2-yl)methyl)-4-fluoro-1-((4-phenoxybutanoyl)glycyl)pyrrolidine-2-carboxamide] | < 100 nM
2 | N=C(N)c1csc(CNC(=O)[C@@H]2CC(O)(C(F)(F)F)CN2C(=O)CNC(=O)CCCOc2ccccc2)c1 (stereo partly drawn) [Compound 62, (2S)-N-((4-carbamimidoylthiophen-2-yl)methyl)-4-hydroxy-1-((4-phenoxybutanoyl)-glycyl)-4-(trifluoromethyl)pyrrolidine-2-carboxamide] | < 100 nM
3 | C[C@@H](NC(=O)[C@@H]1C[C@]2(C)C[C@@H]2N1C(=O)CNC(=O)c1ccc(Oc2ccccc2)cc1)c1cc(-c2ncc[nH]2)cs1 [Compound 240, (1S,3S,5S)-N-((R)-1-(4-(1H-imidazol-2-yl)thiophen-2-yl)ethyl)-5-methyl-2-((4-phenoxybenzoyl)glycyl)-2-azabicyclo[3.1.0]hexane-3-carboxamide] | < 100 nM
4 | N=C(N)c1csc(CNC(=O)[C@@H]2C[C@@H](C(F)(F)F)CN2C(=O)CNC(=O)CCCOc2ccccc2)c1 [Compound 60, (2S,4R)-N-((4-carbamimidoylthiophen-2-yl)methyl)-1-((4-phenoxybutanoyl)glycyl)-4-(trifluoromethyl)pyrrolidine-2-carboxamide] | < 100 nM
5 | N=C(N)c1csc(CNC(=O)[C@@H]2C[C@@H](C3CCCC3)CN2C(=O)CNC(=O)c2ccc(Oc3ccccc3)cc2)c1 [Compound 54, (2S,4S)-N-((4-carbamimidoylthiophen-2-yl)methyl)-4-cyclopentyl-1-((4-phenoxy-benzoyl)glycyl)pyrrolidine-2-carboxamide] | < 100 nM
6 | N=C(N)c1csc([C@@H](NC(=O)[C@@H]2CC3(CN2C(=O)CNC(=O)CCCOc2ccccc2)OCCO3)C2CC2)c1 [Compound 178, (S)-N-((S)-(4-carbamimidoylthiophen-2-yl)(cyclopropyl)methyl)-7-((4-phenoxybutanoyl)glycyl)-1,4-dioxa-7-azaspiro[4.4]nonane-8-carboxamide] | > 1000 nM
7 | C[C@@H](NC(=O)[C@@H]1C[C@]2(C)C[C@@H]2N1C(=O)CNC(=O)c1ccc(Oc2ccccc2)cc1)c1cc(C(=N)N)cs1 (single isomer, unassigned) [Compound 49, (1S,3S,5S)-N-((R*)-1-(4-carbamimidoylthiophen-2-yl)ethyl)-5-methyl-2-((4-phenoxy-benzoyl)glycyl)-2-azabicyclo[3.1.0]hexane-3-carboxamide] | 100 to 1000 nM
8 | C[C@@]12C[C@@H]1N(C(=O)CNC(=O)c1ccc(Oc3ccc(C(F)(F)F)cn3)cc1)[C@H](C(=O)NCc1cc(C(=N)N)cs1)C2 [Compound 154, (1S,3S,5S)-N-((4-carbamimidoylthiophen-2-yl)methyl)-5-methyl-2-((4-((5-(trifluoromethyl)pyridin-2-yl)oxy)benzoyl)glycyl)-2-azabicyclo[3.1.0]hexane-3-carboxamide] | < 100 nM
9 | C[C@@]12C[C@@H]1N(C(=O)CNC(=O)c1ccc(Oc3ccccc3)cc1)[C@H](C(=O)NCCc1cc(C(=N)N)cs1)C2 [Compound 52, (1S,3S,5S)-N-(2-(4-carbamimidoylthiophen-2-yl)ethyl)-5-methyl-2-((4-phenoxy-benzoyl)glycyl)-2-azabicyclo[3.1.0]hexane-3-carboxamide] | < 100 nM
10 | N=C(N)c1csc(CNC(=O)[C@@H]2CC3(COC3)CN2C(=O)CNC(=O)c2ccc(Oc3ccccc3)cc2)c1 [Compound 262, (S)-N-((4-carbamimidoylthiophen-2-yl)methyl)-6-((4-phenoxybenzoyl)glycyl)-2-oxa-6-azaspiro[3.4]octane-7-carboxamide] | < 100 nM
11 | N=C(N)c1csc(CNC(=O)[C@@H]2CC[C@@H]3CC[C@H](NC(=O)c4ccc(Oc5ccccc5)cc4)C(=O)N32)c1 [Compound 211, (3S,6S,8aS)-N-((4-carbamimidoylthiophen-2-yl)methyl)-5-oxo-6-(4-phenoxybenzamido)octahydroindolizine-3-carboxamide] | 100 to 1000 nM
12 | C[C@@H](NC(=O)[C@@H]1C[C@](F)(CF)CN1C(=O)CNC(=O)c1ccc(Oc2ccccc2)cc1)c1cc(C(=N)N)cs1 [Compound 187, (2S,4R)-N-((R)-1-(4-carbamimidoylthiophen-2-yl)ethyl)-4-fluoro-4-(fluoromethyl)-1-((4-phenoxybenzoyl)glycyl)pyrrolidine-2-carboxamide] | < 100 nM
13 | CS[C@@H]1C[C@@H](C(=O)NCc2cc(C(=N)N)cs2)N(C(=O)CNC(=O)c2ccc(Oc3ccccc3)cc2)C1 [Compound 45, (2S,4R)-N-((4-carbamimidoylthiophen-2-yl)methyl)-4-(methylthio)-1-((4-phenoxy-benzoyl)glycyl)pyrrolidine-2-carboxamide] | < 100 nM

Now from value to compound:

Row | IC50 | SMILES
14 | > 1000 nM | C[C@@]12C[C@@H]1N(C(=O)CNC(=O)c1ccc(Oc3ccccc3)cc1)[C@H](C(=O)NCc1cc(C(=N)N)c(C(F)(F)F)s1)C2 [Compound 248, (1S,3S,5S)-N-((4-carbamimidoyl-5-(trifluoromethyl)thiophen-2-yl)methyl)-5-methyl-2-((4-phenoxybenzoyl)glycyl)-2-azabicyclo[3.1.0]hexane-3-carboxamide]
15 | < 100 nM | N=C(N)c1csc(CNC(=O)[C@@H]2C[C@@H](N3CCCC3)CN2C(=O)CNC(=O)c2ccc(Oc3ccccc3)cc2)c1 [Compound 48, (3′R,5'S)-N-((4-carbamimidoylthiophen-2-yl)methyl)-1′-((4-phenoxybenzoyl)glycyl)-[1,3′-bipyrrolidine]-5′-carboxamide]
16 | < 100 nM | Cc1ccc(OCCCC(=O)NCC(=O)N2CC3(C[C@H]2C(=O)NCc2cc(C(=N)N)cs2)OCCO3)cc1 [Compound 64, (S)-N-((4-carbamimidoylthiophen-2-yl)methyl)-7-((4-(p-tolyloxy)butanoyl)glycyl)-1,4-dioxa-7-azaspiro[4.4]nonane-8-carboxamide]
17 | > 1000 nM | N=C(N)c1csc([C@H](NC(=O)[C@@H]2CC3(CN2C(=O)CNC(=O)CCCOc2ccccc2)OCCO3)C2CC2)c1 [Compound 177, (S)-N-((R)-(4-carbamimidoylthiophen-2-yl)(cyclopropyl)methyl)-7-((4-phenoxybutanoyl)glycyl)-1,4-dioxa-7-azaspiro[4.4]nonane-8-carboxamide]
18 | < 100 nM | N=C(N)c1csc([C@@H](CO)NC(=O)[C@@H]2C[C@@H](OC(F)F)CN2C(=O)CNC(=O)c2ccc(Oc3ccccc3)cc2)c1 [Compound 197, (2S,4R)-N-((R)-1-(4-carbamimidoylthiophen-2-yl)-2-hydroxyethyl)-4-(difluoromethoxy)-1-((4-phenoxybenzoyl)glycyl)pyrrolidine-2-carboxamide]
19 | < 100 nM | C[C@@H](NC(=O)[C@@H]1CC2(CN1C(=O)CNC(=O)c1ccccc1)OCCO2)c1cc(C(=N)N)cs1 [Compound 264, (S)-7-(benzoylglycyl)-N-((R)-1-(4-carbamimidoylthiophen-2-yl)ethyl)-1,4-dioxa-7-azaspiro[4.4]nonane-8-carboxamide]
20 | < 100 nM | C[C@@]12C[C@@H]1N(C(=O)CNC(=O)CCCOC1CCCCC1)[C@H](C(=O)NCc1cc(C(=N)N)cs1)C2 [Compound 117]
21 | < 100 nM | N=C(N)c1csc(CNC(=O)[C@@H]2CC3(CN2C(=O)CNC(=O)CCCOc2ccc(C4CC4)cc2)OCCO3)c1 [Compound 208, (S)-N-((4-carbamimidoylthiophen-2-yl)methyl)-7-((4-(4-cyclopropylphenoxy)butanoyl)glycyl)-1,4-dioxa-7-azaspiro[4.4]nonane-8-carboxamide]
22 | < 100 nM | C[C@@H](NC(=O)[C@@H]1C[C@]2(C)C[C@@H]2N1C(=O)CNC(=O)CCCCc1ccccc1)c1cc(C(=N)N)cs1 [Compound 130, (1S,3S,5S)-N-((R)-1-(4-carbamimidoylthiophen-2-yl)ethyl)-5-methyl-2-((5-phenyl-pentanoyl)glycyl)-2-azabicyclo[3.1.0]hexane-3-carboxamide]
23 | < 100 nM | N=C(N)c1csc(CNC(=O)[C@@H]2C[C@@H](OC(F)F)CN2C(=O)CNC(=O)CCCOc2ccccc2)c1 [Compound 29, (2S,4R)-N-((4-carbamimidoylthiophen-2-yl)methyl)-4-(difluoromethoxy)-1-((4-phenoxybutanoyl)glycyl)pyrrolidine-2-carboxamide]

same assay, conditions: read-out: C1s Protease Activity; human C1s 1.16 nM, 5 min preincubation, substrate Z-L-Lys-SBzl 100 μM, A405

Row | SMILES | IC50
24 | N=C(N)c1csc(CNC(=O)C23CCC(CC2)N3C(=O)CNC(=O)CCCOc2ccccc2)c1 [Compound 30, N-((4-carbamimidoylthiophen-2-yl)methyl)-7-((4-phenoxybutanoyl)glycyl)-7-azabicyclo[2.2.1]heptane-1-carboxamide] | < 100 nM
